Legend:
OcTPC3 [1] = target: T1, OcTPC3 (Oryctolagus cuniculus, UniProt B8Q2W0); test: inside-out patch clamp, tail current at […] mV after +[…] mV step; format: biochemical; conditions: agonist; relative to 1 µM PI(3,5)P2; 4-s step to +100 mV; pH 7.2
T1 construct: gene TPCN3; C-terminal EGFP fusion (pEGFP-N1), transient in HEK293; previously cloned cDNA; dimer
T1 sequence (B8Q2W0 1-766): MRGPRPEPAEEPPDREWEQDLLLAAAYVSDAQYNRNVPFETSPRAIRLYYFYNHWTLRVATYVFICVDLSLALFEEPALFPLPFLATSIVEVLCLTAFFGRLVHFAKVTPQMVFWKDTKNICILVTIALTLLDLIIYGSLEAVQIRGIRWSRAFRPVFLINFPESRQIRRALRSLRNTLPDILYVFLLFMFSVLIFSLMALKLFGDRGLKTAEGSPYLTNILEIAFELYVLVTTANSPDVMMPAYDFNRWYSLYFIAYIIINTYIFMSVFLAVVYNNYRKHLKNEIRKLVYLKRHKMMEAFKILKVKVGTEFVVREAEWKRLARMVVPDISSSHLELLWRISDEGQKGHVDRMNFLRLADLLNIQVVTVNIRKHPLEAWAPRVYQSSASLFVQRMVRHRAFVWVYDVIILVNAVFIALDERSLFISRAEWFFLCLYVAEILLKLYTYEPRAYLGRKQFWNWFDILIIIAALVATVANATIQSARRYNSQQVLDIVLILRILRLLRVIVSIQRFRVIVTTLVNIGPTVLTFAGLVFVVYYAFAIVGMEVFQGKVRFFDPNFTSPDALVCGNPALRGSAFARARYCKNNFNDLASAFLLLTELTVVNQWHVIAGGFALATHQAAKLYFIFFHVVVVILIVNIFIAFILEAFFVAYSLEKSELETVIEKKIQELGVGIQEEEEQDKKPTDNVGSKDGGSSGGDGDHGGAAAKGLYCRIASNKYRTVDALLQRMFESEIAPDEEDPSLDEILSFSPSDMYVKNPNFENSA

OcTPC2 [2] = target: T2, OcTPC2 (Oryctolagus cuniculus, UniProt Z9ZIB8IF81); test: whole-endolysosome patch clamp, current at -100 mV; format: biochemical; conditions: inhibitor; against 100 nM PI(3,5)P2; voltage ramps
T2 construct: full-length, C-terminal EGFP fusion (pEGFP-N1), transient in HEK293; cloned from rabbit kidney RNA; 749/753 residues match GBCT01193833.1; dimer

OcTPC3 [3] = target: T1, OcTPC3; test: inside-out patch clamp, tail current at […] mV after +[…] mV step; format: cell-based
OcTPC1 = system: T3, OcTPC1; test: inside-out patch clamp, current at -100 mV; format: cell-based, Oryctolagus cuniculus; conditions: agonist; voltage ramps; cytoplasmic pH 7.2; room temperature; HEK293
T3 construct: gene TPCN1; full-length, C-terminal EGFP fusion (pEGFP-N1), transient in HEK293; cloned from rabbit kidney RNA; 815/817 residues match XM_017349553.1; dimer

OcTPC2 [4] = target: T2, OcTPC2; test: whole-endolysosome patch clamp, current at -100 mV; format: cell-based; conditions: agonist; voltage ramps; vacuolin-1 enlarged vacuoles; cytoplasmic pH 7.2; room temperature; HEK293

CCCCCCCC(=O)OC[C@H](COP(=O)(O)O[C@@H]1[C@H](O)[C@H](OP(=O)(O)O)[C@@H](O)[C@H](O)[C@H]1O)OC(=O)CCCCCCC [PI3P]
% of PI(3,5)P2 response at 1 μM (OcTPC3 [1]): 93.8 ± 5.1%

CCCCCCCC(=O)OC[C@H](COP(=O)(O)O[C@H]1[C@H](O)[C@@H](O)[C@H](OP(=O)(O)O)[C@@H](OP(=O)(O)O)[C@H]1O)OC(=O)CCCCCCC [PI(3,4)P2]
% of PI(3,5)P2 response at 1 μM (OcTPC3 [1]): 29.9 ± 5.2%

CCCCCCCC(=O)OC[C@H](COP(=O)(O)O[C@H]1[C@H](O)[C@@H](OP(=O)(O)O)[C@H](OP(=O)(O)O)[C@@H](OP(=O)(O)O)[C@H]1O)OC(=O)CCCCCCC [PI(3,4,5)P3]
% of PI(3,5)P2 response at 1 μM (OcTPC3 [1]): 7.0 ± 2.0%

CCCCCCCC(=O)OC[C@H](COP(=O)(O)O[C@@H]1[C@H](O)[C@H](O)[C@@H](OP(=O)(O)O)[C@H](OP(=O)(O)O)[C@H]1O)OC(=O)CCCCCCC [PI(4,5)P2]
% of PI(3,5)P2 response at 1 μM (OcTPC3 [1]): 9.0 ± 2.0% | % inhibition at 1 μM (OcTPC2 [2]): 67.6 ± 5.3%

CCCCCCCC(=O)OC[C@H](COP(=O)(O)O[C@@H]1[C@H](O)[C@H](OP(=O)(O)O)[C@@H](O)[C@H](OP(=O)(O)O)[C@H]1O)OC(=O)CCCCCCC [diC8 PI(3,5)P2]
EC50 (OcTPC3 [3]): 0.142 ± 0.0002 µM | EC50 (OcTPC1): 0.0263 ± 0.005 µM | EC50 (OcTPC2 [4]): 0.208 ± 0.0081 µM

Reference: paper PMC9265530, “The Three Two-Pore Channel Subtypes from Rabbit Exhibit Distinct Sensitivity to Phosphoinositides, Voltage, and Extracytosolic pH” (Cells, 2022)
